Reference: publication PMC3914206

How the values were obtained:
Type in all cases: binding
Design in all cases: KINOMEscan: ABL1(F317L)-phosphorylated / KINOMEscan: ABL1(H396P)-nonphosphorylated / KINOMEscan: ABL1(H396P)-phosphorylated / KINOMEscan: ABL1(M351T)-phosphorylated / KINOMEscan: ABL1(T315I)-phosphorylated / KINOMEscan: ABL1-nonphosphorylated / KINOMEscan: ABL1-phosphorylated / KINOMEscan: ACVR2A / KINOMEscan: ACVR2B / KINOMEscan: ADCK3 / KINOMEscan: ADCK4 / KINOMEscan: AKT1 / KINOMEscan: AKT3 / KINOMEscan: ALK / KINOMEscan: ARK5 / KINOMEscan: AURKA / KINOMEscan: AURKC / KINOMEscan: BIKE / KINOMEscan: BMPR1A / KINOMEscan: BMPR1B / KINOMEscan: BMX / KINOMEscan: BRK / KINOMEscan: BRSK1 / KINOMEscan: BRSK2 / KINOMEscan: CAMK1 / KINOMEscan: CAMK1D / KINOMEscan: CAMK1G / KINOMEscan: CAMK2A / KINOMEscan: CAMK2B / KINOMEscan: AAK1 / KINOMEscan: CAMK2D / KINOMEscan: CAMK2G / KINOMEscan: ABL1(F317I)-nonphosphorylated / KINOMEscan: ABL1(F317I)-phosphorylated / KINOMEscan: ABL1(F317L)-nonphosphorylated: unit: % Ctrl
[1] = molecular target: T1, panel of 442 kinases (Homo sapiens, UniProt O00238); settings: Compound Concentration 10 µM
T1 construct: purchased KINOMEscan
T1 sequence (O00238 14-502): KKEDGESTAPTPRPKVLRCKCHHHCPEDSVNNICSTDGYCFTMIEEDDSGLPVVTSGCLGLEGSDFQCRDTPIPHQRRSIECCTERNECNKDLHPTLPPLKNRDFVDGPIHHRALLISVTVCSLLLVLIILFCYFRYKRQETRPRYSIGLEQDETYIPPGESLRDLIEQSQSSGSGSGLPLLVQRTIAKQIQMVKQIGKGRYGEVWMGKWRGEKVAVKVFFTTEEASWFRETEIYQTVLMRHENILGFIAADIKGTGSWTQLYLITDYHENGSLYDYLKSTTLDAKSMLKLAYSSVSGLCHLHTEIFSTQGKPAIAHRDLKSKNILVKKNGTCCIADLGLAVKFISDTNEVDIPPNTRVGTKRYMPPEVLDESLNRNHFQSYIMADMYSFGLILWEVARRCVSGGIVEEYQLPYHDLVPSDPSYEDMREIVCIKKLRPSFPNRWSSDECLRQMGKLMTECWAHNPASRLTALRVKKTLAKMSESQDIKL
Excerpt: (§1) We assessed the selectivity of members of this scaffold using the KINOMEscan methodology across a near comprehensive panel of 442 kinases [[18,27]].

[2] = molecular target: T2, panel of 442 kinases (Homo sapiens, UniProt O15075); settings: Compound Concentration 10 µM
T2 construct: purchased KINOMEscan
T2 sequence (O15075 whole entry): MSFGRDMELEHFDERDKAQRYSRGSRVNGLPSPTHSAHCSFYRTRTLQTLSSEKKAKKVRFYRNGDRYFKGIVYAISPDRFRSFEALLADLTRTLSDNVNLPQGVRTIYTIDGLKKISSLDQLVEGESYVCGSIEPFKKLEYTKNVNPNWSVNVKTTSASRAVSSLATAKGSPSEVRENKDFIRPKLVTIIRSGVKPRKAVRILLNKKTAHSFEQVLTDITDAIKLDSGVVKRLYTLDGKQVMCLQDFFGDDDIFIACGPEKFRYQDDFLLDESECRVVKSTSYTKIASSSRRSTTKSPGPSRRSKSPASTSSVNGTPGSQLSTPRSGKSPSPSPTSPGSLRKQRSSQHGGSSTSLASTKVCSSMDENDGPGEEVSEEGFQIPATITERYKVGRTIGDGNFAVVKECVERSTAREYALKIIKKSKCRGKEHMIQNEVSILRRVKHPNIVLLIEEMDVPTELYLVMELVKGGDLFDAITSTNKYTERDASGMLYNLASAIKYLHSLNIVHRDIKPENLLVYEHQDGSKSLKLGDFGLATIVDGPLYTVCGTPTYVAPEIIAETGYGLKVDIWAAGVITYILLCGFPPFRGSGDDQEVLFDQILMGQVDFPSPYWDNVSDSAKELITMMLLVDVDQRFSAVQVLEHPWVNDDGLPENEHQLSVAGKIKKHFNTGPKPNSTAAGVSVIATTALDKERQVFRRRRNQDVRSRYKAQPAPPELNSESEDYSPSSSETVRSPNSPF
Excerpt: as §1

[3] = molecular target: T3, panel of 442 kinases (Homo sapiens, UniProt Q16512); settings: Compound Concentration 10 µM
T3 construct: purchased KINOMEscan
T3 sequence (Q16512 whole entry): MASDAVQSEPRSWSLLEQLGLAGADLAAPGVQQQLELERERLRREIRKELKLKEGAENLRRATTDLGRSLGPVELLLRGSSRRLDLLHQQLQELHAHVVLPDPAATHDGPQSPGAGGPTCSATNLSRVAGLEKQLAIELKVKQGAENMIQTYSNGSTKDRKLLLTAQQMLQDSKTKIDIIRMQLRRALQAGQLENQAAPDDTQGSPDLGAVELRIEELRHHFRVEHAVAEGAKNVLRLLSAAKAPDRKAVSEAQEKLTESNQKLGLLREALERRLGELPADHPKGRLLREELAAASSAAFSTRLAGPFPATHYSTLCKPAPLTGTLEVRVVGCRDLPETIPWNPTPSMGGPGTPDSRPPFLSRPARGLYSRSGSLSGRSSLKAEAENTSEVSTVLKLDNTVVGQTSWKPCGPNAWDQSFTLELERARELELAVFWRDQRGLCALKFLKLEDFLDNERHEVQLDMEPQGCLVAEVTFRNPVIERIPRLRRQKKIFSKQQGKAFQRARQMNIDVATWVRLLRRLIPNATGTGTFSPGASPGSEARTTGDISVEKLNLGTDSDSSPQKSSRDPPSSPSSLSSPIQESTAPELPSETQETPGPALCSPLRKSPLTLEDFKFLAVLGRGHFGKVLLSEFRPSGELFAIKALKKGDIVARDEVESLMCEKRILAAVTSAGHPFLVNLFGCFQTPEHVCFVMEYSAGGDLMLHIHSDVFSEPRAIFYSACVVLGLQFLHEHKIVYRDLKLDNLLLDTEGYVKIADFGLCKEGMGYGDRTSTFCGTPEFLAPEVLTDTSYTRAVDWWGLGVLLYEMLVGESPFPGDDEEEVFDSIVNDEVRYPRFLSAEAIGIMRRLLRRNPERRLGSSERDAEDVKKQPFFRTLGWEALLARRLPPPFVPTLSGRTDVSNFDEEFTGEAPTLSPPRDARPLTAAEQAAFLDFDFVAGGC
Excerpt: as §1

[4] = molecular target: T4, panel of 442 kinases (Homo sapiens, UniProt Q86UE8); settings: kinase TLK2; compound concentration 10 µM
T4 construct: purchased KINOMEscan
T4 sequence (Q86UE8 whole entry): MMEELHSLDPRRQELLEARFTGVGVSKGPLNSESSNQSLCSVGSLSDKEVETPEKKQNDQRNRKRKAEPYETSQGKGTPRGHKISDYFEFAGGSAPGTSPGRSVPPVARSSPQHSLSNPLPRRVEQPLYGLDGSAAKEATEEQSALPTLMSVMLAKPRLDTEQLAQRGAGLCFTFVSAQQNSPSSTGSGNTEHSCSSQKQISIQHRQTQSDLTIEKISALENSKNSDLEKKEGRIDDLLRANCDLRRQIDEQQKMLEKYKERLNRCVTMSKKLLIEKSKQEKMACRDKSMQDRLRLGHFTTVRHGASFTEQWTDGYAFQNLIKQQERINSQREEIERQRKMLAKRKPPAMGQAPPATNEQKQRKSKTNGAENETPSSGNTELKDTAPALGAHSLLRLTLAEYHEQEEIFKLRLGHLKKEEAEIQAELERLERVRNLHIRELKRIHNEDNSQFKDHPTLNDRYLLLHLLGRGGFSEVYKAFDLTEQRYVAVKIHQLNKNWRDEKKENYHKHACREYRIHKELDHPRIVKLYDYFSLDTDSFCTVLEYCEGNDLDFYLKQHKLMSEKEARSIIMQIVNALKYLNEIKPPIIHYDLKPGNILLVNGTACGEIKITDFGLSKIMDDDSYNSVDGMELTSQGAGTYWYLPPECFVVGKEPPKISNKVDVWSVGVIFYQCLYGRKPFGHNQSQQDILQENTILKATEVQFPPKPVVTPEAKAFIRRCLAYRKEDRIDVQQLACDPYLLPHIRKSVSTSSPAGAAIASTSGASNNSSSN
Excerpt: as §1

| SMILES | KINOMEscan: BMPR1B [1] | KINOMEscan: DCAMKL1 [2] | KINOMEscan: PKN1 [3] | % Ctrl, TLK2 [4] [% Ctrl] |
| --- | --- | --- | --- | --- |
| COc1cc(C(=O)N2CCC(N3CCN(C)CC3)CC2)ccc1Nc1ncc2c(n1)N(C1CCCC1)c1ccccc1C(=O)N2C [Compound 25, 11-cyclopentyl-2-((2-methoxy-4-(4-(4-methylpiperazin-1-yl)piperidine-1-carbonyl)phenyl)amino)-5-methyl-5H-benzo[e]pyrimido[5,4-b][1,4]diazepin-6(11H)-one] | 98 | 8.4 | 100 | 94 |
| CCOc1cc(C(=O)N2CCC(N3CCN(C)CC3)CC2)ccc1Nc1ncc2c(n1)N(C1CCCC1)c1ccccc1C(=O)N2C [Compound 26] | 100 |  | 100 | 100 |
| COc1cc(C(=O)N2CCC(N3CCN(C)CC3)CC2)ccc1Nc1ncc2c(n1)N1CCc3cccc(c31)C(=O)N2C [Compound 24] | 97 | 6.4 |  | 98 |
| COc1cc(C(=O)N2CCC(N3CCN(C)CC3)CC2)ccc1Nc1ncc2c(n1)N(C)c1ccccc1C(=O)N2C [15 (LRRK2-IN-1)] | 76 | 4.2 | 100 | 99 |
